Measured values published in US20140336187A1, “METHODS FOR TREATING LEISHMANIASIS” (HOWARD UNIVERSITY, priority 2011, published 2014).
Several values for one entry are separate records, joined by “and”; a condition that tells them apart may be missing. Identical values can stand only once.

Tests used:
[1] = In vivo cytotoxic assessment: serum AST and ALT in VL BALB/c mice; conditions: compared with uninfected negative controls
Experimental: Serum was collected from infected, treated and non-treated mice 14 days post infection and 7 days from the start of treatment for the determination of alanine amino transferase (ALT) and aspartate amino transferase (AST) activities. Assays were done in 96 well microtiter plates and samples and standards were run in duplicates or triplicates. For ALT, 2 μl of serum from infected treated and untreated samples were incubated with 10 μl of ALT substrate solution (1.78 g DL-alanine and 30 mg α-keto glutarate in 20 ml of phosphate buffer containing 1.25 ml of 0.4 M NaOH. Volume made up to 100 ml with buffer, pH 7.4. 1 ml of chloroform as preservative. Stable for 2 months at 2-8° C.), mixed and incubated at 37° C. for 30 minutes. 10 μl of dinitrophenolhydrazine (2,4 DNPH) was added. Blanks (ddH2O) and negative (not infected) samples were then added. Samples were mixed and incubated at room temperature for 20 minutes. 100 μl of 0.4 M NaOH was added, mixed and incubated at room temperature for 5 min. Plates were read at 490 nm. For AST, 2 μl of test and positive (infected, treated and untreated) samples were incubated with 10 μl of AST substrate solution (2.66 g DL-aspartic acid and 30 mg α-keto glutarate in 20.5 ml of 1 M NaOH pH 7.4, volume made up to 100 ml with phosphate buffer. 1 ml of chloroform was added as preservative. This was stable for 2 months at 2-8° C.) and incubated at 37° C. for 1 hr. 10 μl of 2,4 DNPH added and mixed. 2 μl of negative controls (not infected) and blanks (ddH2O) added and mixed and then incubated at room temperature for 20 min. 100 μl of 0.4 M NaOH was added, mixed and incubated at room temperature for 5 min and read at 490 nm. The enzyme activity was determined from the standard curve drawn using sodium pyruvate as standard solution (2 mM/ml pyruvate). Enzyme activities were expressed as units/ml. Reference ranges by this method are: AST; 0.096-3.8 U/ml and ALT; 0.112-3.0 U/ml. (Mallick et al., 2003; Reitman and Frankel, 1957).
In order to assess in vivo cytotoxicity of four naphthoquinone compounds (IMDNQ4, IMD8, IMDNQ 10, and IMDNQ 15), serum aspartate aminotransferase (AST), and alanine aminotransferase (ALT) levels were analyzed and compared to those in untreated controls. The assay range for AST is 0.096-3.8 U/ml (mean assay range is 1.95 U/ml) and for ALT assay, 0.112-3.0 U/ml (mean assay range is 1.56 U/ml). The results are expressed as percent increase or decrease in AST or ALT levels.

| SMILES | Serum ALT Increase (%) ([1]; 5 mg/kg) | Serum AST Increase (%) ([1]; 5 mg/kg) | Serum ALT Increase (%) ([1]; 20 mg/kg) | Serum AST Increase (%) ([1]; 20 mg/kg) | Serum ALT Increase (%) ([1]; 50 mg/kg) | Serum AST Increase (%) ([1]; 50 mg/kg) | melting point [°C] |
| --- | --- | --- | --- | --- | --- | --- | --- |
| O=C1C(Cl)=C(N(C(=O)c2cccc(Cl)c2)C(=O)c2cccc(Cl)c2)C(=O)c2ccccc21 [IMDNQ4, 3-Chloro-N-(3-chlorobenzoyl)-N-(3-chloro-1,4-dioxo-1,4-dihydronaphthalen-2-yl)-benzamide] | 100 | 87.40 | 100 | 87.48% | 100 | 85.65% | 258 to 260 |
| CCCC(=O)N(C(=O)CCC)C1=C(Cl)C(=O)c2ccccc2C1=O [IMDNQ15] | 100 | 87.95 | 100 | 90.34% | 100 | 91.91% |  |
| C[C@@H]1[C@H](O)[C@@H](C)/C=C/C=C/C=C/C=C/C=C/C=C/C=C/[C@H](O[C@@H]2O[C@H](C)[C@@H](O)[C@H](N)[C@@H]2O)C[C@@H]2O[C@](O)(C[C@@H](O)C[C@@H](O)[C@H](O)CC[C@@H](O)C[C@@H](O)CC(=O)O[C@H]1C)C[C@H](O)[C@H]2C(=O)O [Am. B., Amphotericin B, reference compound] |  |  | 100 | 88.05% |  |  |  |
| NC1=C(Br)C(=O)c2ccccc2C1=O [IMD8, 2-Amino-3-bromo-1,4-naphthoquinone] | 100 | 82.69 | 100 | 87.48% and 85.17% | 100 | 85.65% and 82.69% |  |
